From BindingDB's records for doi:10.1016/s0960-894x(98)00197-8 (Pharmacia & Upjohn, 1999)

Target: Human immunodeficiency virus type 1 protease (Human immunodeficiency virus 1, UniProt Q72874)
Test: Compound was evaluated for in vitro inhibition of human immunodeficiency virus type 1 (HIV-1) Protease

SMILES | Ki
CCCC1(CCc2ccccc2)CC(=O)C(C(CC)c2cccc(NS(=O)(=O)c3ccc(C#N)cn3)c2)C(=O)O1 (configuration not stated) [5-cyano-N-(3-{1-[4-hydroxy-2-oxo-6-(2-phenylethyl)-6-propyl-5,6-dihydro-2H-pyran-3-yl]propyl}phenyl)pyridine-2-sulfonamide] | 0.1 nM
CCC(c1cccc(NS(=O)(=O)c2ccc(C#N)cn2)c1)C1C(=O)CC(CC)(c2cccc(NS(=O)(=O)c3ccc(C#N)cn3)c2)OC1=O (configuration not stated) [2N-[3-(1-{2-[3-(5-cyano-2-pyridylsulfonamido)phenyl]-2-ethyl-4-hydroxy-6-oxo-3,6-dihydro-2H-5-pyranyl}propyl)phenyl]-5-cyano-2-pyridinesulfonamide] | 0.1 nM
